In brackets after ≈: the same amount, converted by molar mass. Where two headings read alike, the source gives them in different places.
Legend:
[1] = target: T1, PBP3 from Escherichia coli (K-12) (Escherichia coli, UniProt P0AD68); test: Bocillin-FL fluorescence polarization competition binding, E. coli PBP3
T1 construct: made in house
Outline: (§1)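 Purified PBP was preincubated with inhibitor (E. coli PBP3 1.5 μM, 30 min; P. aeruginosa PBP3 0.75 μM, A. baumannii PBP3 0.2 μM and PBP1a 1 μM, 15 min), then Bocillin-FL (0.1 μM; 0.05 μM for PBP1a) added and FP read up to 60 min. EC50 = 50% loss of bound probe.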

[2] = target: T2, PBP3 from Pseudomonas aeruginosa (PAO1) (Pseudomonas aeruginosa, UniProt G3XD46); test: Bocillin-FL fluorescence polarization competition binding, P. aeruginosa PBP3; settings: Binding affinity to P. aeruginosa PBP3; fluorescence polarization competition binding assay using Bocillin-FL; read-out: P. aeruginosa PBP3 Potency
T2 construct: made in house
Outline: as §1

[3] = target: T3, PBP3 from Acinetobacter baumannii (ATCC 19606) (Acinetobacter baumannii, UniProt A0ABX6CK25); test: Bocillin-FL fluorescence polarization competition binding, A. baumannii PBP3; settings: fluorescence polarization competition binding assay using Bocillin-FL; read-out: A. baumannii PBP3 Potency
T3 sequence (A0ABX6CK25 64-610): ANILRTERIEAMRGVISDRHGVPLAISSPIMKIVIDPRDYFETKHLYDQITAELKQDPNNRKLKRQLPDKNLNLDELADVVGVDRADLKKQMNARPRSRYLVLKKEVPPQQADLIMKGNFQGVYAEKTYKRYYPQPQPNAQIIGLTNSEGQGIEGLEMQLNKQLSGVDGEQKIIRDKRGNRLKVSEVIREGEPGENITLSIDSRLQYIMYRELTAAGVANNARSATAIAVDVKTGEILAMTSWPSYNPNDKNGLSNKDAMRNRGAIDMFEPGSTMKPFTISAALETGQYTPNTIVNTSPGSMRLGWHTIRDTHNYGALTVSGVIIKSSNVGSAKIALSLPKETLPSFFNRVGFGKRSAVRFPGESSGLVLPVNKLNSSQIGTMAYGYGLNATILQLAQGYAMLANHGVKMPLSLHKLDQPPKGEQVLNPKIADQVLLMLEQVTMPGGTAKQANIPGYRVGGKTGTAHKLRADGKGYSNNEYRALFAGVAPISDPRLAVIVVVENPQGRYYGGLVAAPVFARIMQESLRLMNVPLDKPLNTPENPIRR
Outline: as §1

[4] = tested on: P. aeruginosa ATCC 35151; test: microbe, parasite or virus in culture; format: cell-based; settings: Pseudomonas aeruginosa, ATCC35151, read-out: Minimum inhibitory concentration, P. aeruginosa ATCC 35151
[5] = tested on: P. aeruginosa CDC-0090; test: microbe, parasite or virus in culture; format: cell-based; settings: Pseudomonas aeruginosa, CDC0090, read-out: Minimum inhibitory concentration, P. aeruginosa CDC-0090
[6] = tested on: P. aeruginosa CDC-0095; test: microbe, parasite or virus in culture; format: cell-based; settings: Pseudomonas aeruginosa, CDC0095, read-out: Minimum inhibitory concentration, P. aeruginosa CDC-0095
[7] = tested on: A. baumannii CDC-0033; test: microbe, parasite or virus in culture; format: cell-based; settings: Acinetobacter baumannii, CDC0033, read-out: MIC, A. baumannii CDC-0033
[8] = tested on: B. thailandensis ATCC 700388; test: microbe, parasite or virus in culture; format: cell-based; settings: Burkholderia thailandensis, ATCC700388, read-out: Minimum inhibitory concentration (MIC), B. thailandensis ATCC 700388
[9] = tested on: N. gonorrhoeae ATCC 49226; test: Liquid broth MIC in Fastidious broth; settings: Neisseria gonorrhoeae
[10] = tested on: N. gonorrhoeae FA1090; test: Liquid broth MIC in Fastidious broth; settings: Neisseria gonorrhoeae
[11] = tested on: N. gonorrhoeae WHO G; test: Liquid broth MIC in Fastidious broth; settings: Neisseria gonorrhoeae
[12] = ATCC49226, read-out: Minimum Inhibitory Concentration, ATCC 49226
[13] = FA1090, read-out: Minimum Inhibitory Concentration, FA 1090
[14] = read-out: Minimum Inhibitory Concentration, WHO G

T2 sequence (G3XD46 whole entry): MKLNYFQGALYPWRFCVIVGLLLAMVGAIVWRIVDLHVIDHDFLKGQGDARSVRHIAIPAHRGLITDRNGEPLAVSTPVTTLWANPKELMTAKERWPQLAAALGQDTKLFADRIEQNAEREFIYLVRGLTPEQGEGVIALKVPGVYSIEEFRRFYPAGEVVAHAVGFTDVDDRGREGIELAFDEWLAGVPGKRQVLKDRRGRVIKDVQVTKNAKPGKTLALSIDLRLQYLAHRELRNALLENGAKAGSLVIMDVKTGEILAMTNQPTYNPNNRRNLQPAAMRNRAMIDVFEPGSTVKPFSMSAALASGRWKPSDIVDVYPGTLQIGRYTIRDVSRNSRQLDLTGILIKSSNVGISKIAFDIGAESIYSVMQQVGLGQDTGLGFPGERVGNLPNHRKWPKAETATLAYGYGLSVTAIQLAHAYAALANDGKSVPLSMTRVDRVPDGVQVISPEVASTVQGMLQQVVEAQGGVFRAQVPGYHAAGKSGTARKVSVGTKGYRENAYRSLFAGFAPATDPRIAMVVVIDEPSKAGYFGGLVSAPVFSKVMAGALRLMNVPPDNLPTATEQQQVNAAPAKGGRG
T1 sequence (P0AD68 1-577): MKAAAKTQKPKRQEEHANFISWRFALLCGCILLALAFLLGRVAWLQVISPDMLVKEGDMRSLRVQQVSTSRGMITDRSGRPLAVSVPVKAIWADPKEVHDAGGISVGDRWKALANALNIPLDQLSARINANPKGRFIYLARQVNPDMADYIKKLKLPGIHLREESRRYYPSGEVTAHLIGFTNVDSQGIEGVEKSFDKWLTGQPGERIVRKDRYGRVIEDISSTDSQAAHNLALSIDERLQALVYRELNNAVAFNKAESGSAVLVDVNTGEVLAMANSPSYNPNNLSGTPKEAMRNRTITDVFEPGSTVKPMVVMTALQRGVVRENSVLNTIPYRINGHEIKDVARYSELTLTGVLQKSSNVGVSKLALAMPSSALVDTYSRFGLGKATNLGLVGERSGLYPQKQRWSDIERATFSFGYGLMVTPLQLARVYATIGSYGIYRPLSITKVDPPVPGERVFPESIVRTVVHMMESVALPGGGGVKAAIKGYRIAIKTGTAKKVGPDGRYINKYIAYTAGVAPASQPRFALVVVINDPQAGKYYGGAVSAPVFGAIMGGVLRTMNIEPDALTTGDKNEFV

CS(=O)(=O)N1CCN(C(=O)N[C@@H](C(=O)N[C@H]2Cc3cccc(C(=O)O)c3OB2O)c2ccc(P(=O)(O)O)cc2)C1=O (single isomer, unassigned) [Example 6]
EC50 [1]: < 10 µM
IC50 [2]: < 10 µM
IC50 [3]: < 10 µM
MIC [4]: 2 to 4 µg/mL (≈ 3.28 to 6.55 µM)
MIC [5]: > 128 µg/mL
MIC [6]: > 128 µg/mL
MIC [7]: 32 to 64 µg/mL (≈ 52.4 to 105 µM)
MIC [8]: 8 to 16 µg/mL (≈ 13.1 to 26.2 µM)
MIC ([9]; ATCC49226, read-out: Minimum Inhibitory Concentration (MIC), N. gonorrhoeae ATCC 49226): < 1 µg/mL
MIC ([10]; FA1090, read-out: Minimum Inhibitory Concentration (MIC), N. gonorrhoeae FA 1090): < 1 µg/mL
MIC ([11]; read-out: Minimum Inhibitory Concentration (MIC), N. gonorrhoeae WHO G): < 1 µg/mL

O=C(NCCCN1CCN(C(=O)N[C@H](C(=O)N[C@H]2Cc3ccc(F)c(C(=O)O)c3OB2O)c2cc(F)c(O)c(O)c2Cl)C1=O)Nc1ccc(O)cc1 [Example 283, (R)-3-((S)-2-(2-chloro-5-fluoro-3,4-dihydroxyphenyl)-2-(3-(3-(3-(4-hydroxyphenyl)ureido)propyl)-2-oxoimidazolidine-1-carboxamido)acetamido)-7-fluoro-2-hydroxy-3,4-dihydro-2H-benzo[e][1,2]oxaborinine-8-carboxylic acid]
EC50 [1]: > 250 µM
IC50 [2]: 50 to 250 µM
IC50 [3]: 50 to 250 µM
MIC [4]: 2 to 4 µg/mL (≈ 2.68 to 5.36 µM)
MIC [5]: > 128 µg/mL
MIC [6]: > 128 µg/mL
MIC [7]: > 128 µg/mL
MIC [8]: > 128 µg/mL
MIC [9, 12]: > 64 µg/mL
MIC [10, 13]: > 64 µg/mL
MIC [11, 14]: > 64 µg/mL

O=C(NCCCN1CCN(C(=O)N[C@@H](C(=O)N[C@H]2Cc3ccc(F)c(C(=O)O)c3OB2O)c2cc(F)c(O)c(O)c2Cl)C(=O)C1=O)c1cccc(O)c1Cl [Example 303, (R)-3-((R)-2-(4-(3-(2-chloro-3-hydroxybenzamido)propyl)-2,3-dioxopiperazine-1-carboxamido)-2-(2-chloro-5-fluoro-3,4-dihydroxyphenyl)acetamido)-7-fluoro-2-hydroxy-3,4-dihydro-2H-benzo[e][1,2]oxaborinine-8-carboxylic acid]
EC50 [1]: < 10 µM
IC50 [2]: < 10 µM
IC50 [3]: < 10 µM
MIC [4]: < 1 µg/mL
MIC [5]: < 1 µg/mL
MIC [6]: < 1 µg/mL
MIC [7]: 2 to 4 µg/mL (≈ 2.52 to 5.04 µM)
MIC [8]: < 1 µg/mL
MIC [9, 12]: 4 to 8 µg/mL (≈ 5.04 to 10.1 µM)
MIC [10, 13]: 1 to 2 µg/mL (≈ 1.26 to 2.52 µM)
MIC [11, 14]: 4 to 8 µg/mL (≈ 5.04 to 10.1 µM)

O=C(O)c1c(F)ccc2c1OB(O)[C@@H](NC(=O)C(NC(=O)N1CCN(Cc3ccc(O)c(O)c3Cl)C(=O)C1=O)c1cc(F)c(O)c(O)c1Cl)C2 (stereo partly drawn) [Example 292, (3R)-3-(2-(4-(2-chloro-3,4-dihydroxybenzyl)-2,3-dioxopiperazine-1-carboxamido)-2-(2-chloro-5-fluoro-3,4-dihydroxyphenyl)acetamido)-7-fluoro-2-hydroxy-3,4-dihydro-2H-benzo[e][1,2]oxaborinine-8-carboxylic acid]
EC50 [1]: < 10 µM
IC50 [2]: < 10 µM
IC50 [3]: < 10 µM
MIC [4]: < 1 µg/mL
MIC [5]: < 1 µg/mL
MIC [6]: > 128 µg/mL
MIC [7]: > 128 µg/mL
MIC [8]: > 128 µg/mL
MIC [9, 12]: > 64 µg/mL
MIC [10, 13]: 16 to 32 µg/mL (≈ 21.6 to 43.3 µM)
MIC [11, 14]: > 64 µg/mL

O=C(NCCCN1CCN(C(=O)N[C@@H](C(=O)N[C@H]2Cc3ccc(F)c(C(=O)O)c3OB2O)c2cc(F)c(O)c(O)c2Cl)C(=O)C1=O)c1ccncc1 [Example 294, (R)-3-((R)-2-(2-chloro-5-fluoro-3,4-dihydroxyphenyl)-2-(4-(3-(isonicotinamido)propyl)-2,3-dioxopiperazine-1-carboxamido)acetamido)-7-fluoro-2-hydroxy-3,4-dihydro-2H-benzo[e][1,2]oxaborinine-8-carboxylic acid]
EC50 [1]: < 10 µM
IC50 [2]: < 10 µM
IC50 [3]: < 10 µM
MIC [4]: < 1 µg/mL
MIC [5]: < 1 µg/mL
MIC [6]: < 1 µg/mL
MIC [7]: 2 to 4 µg/mL (≈ 2.69 to 5.37 µM)
MIC [8]: < 1 µg/mL
MIC [9, 12]: 16 to 32 µg/mL (≈ 21.5 to 43 µM)
MIC [10, 13]: 1 to 2 µg/mL (≈ 1.34 to 2.69 µM)
MIC [11, 14]: 16 to 32 µg/mL (≈ 21.5 to 43 µM)

O=C(NCCCN1CCN(C(=O)NC(C(=O)N[C@H]2Cc3ccc(F)c(C(=O)O)c3OB2O)c2cc(F)c(O)c(O)c2Cl)C(=O)C1=O)c1ccncc1Cl (stereo partly drawn) [Example 295, (3R)-3-(2-(2-chloro-5-fluoro-3,4-dihydroxyphenyl)-2-(4-(3-(3-chloroisonicotinamido)propyl)-2,3-dioxopiperazine-1-carboxamido)acetamido)-7-fluoro-2-hydroxy-3,4-dihydro-2H-benzo[e][1,2]oxaborinine-8-carboxylic acid]
EC50 [1]: < 10 µM
IC50 [2]: < 10 µM
IC50 [3]: < 10 µM
MIC [4]: < 1 µg/mL
MIC [5]: < 1 µg/mL
MIC [6]: < 1 µg/mL
MIC [7]: 2 to 4 µg/mL (≈ 2.57 to 5.13 µM)
MIC [8]: 2 to 4 µg/mL (≈ 2.57 to 5.13 µM)
MIC [9, 12]: 16 to 32 µg/mL (≈ 20.5 to 41.1 µM)
MIC [10, 13]: 1 to 2 µg/mL (≈ 1.28 to 2.57 µM)
MIC [11, 14]: 16 to 32 µg/mL (≈ 20.5 to 41.1 µM)

O=C(NCCCN1CCN(C(=O)NC(C(=O)N[C@H]2Cc3ccc(F)c(C(=O)O)c3OB2O)c2cc(F)c(O)c(O)c2Cl)C(=O)C1=O)c1ccc(O)c(Cl)c1 (stereo partly drawn) [Example 305, (3R)-3-(2-(4-(3-(3-chloro-4-hydroxybenzamido)propyl)-2,3-dioxopiperazine-1-carboxamido)-2-(2-chloro-5-fluoro-3,4-dihydroxyphenyl)acetamido)-7-fluoro-2-hydroxy-3,4-dihydro-2H-benzo[e][1,2]oxaborinine-8-carboxylic acid]
EC50 [1]: < 10 µM
IC50 [2]: < 10 µM
IC50 [3]: < 10 µM
MIC [4]: < 1 µg/mL
MIC [5]: < 1 µg/mL
MIC [6]: 2 to 4 µg/mL (≈ 2.52 to 5.04 µM)
MIC [7]: 2 to 4 µg/mL (≈ 2.52 to 5.04 µM)
MIC [8]: 2 to 4 µg/mL (≈ 2.52 to 5.04 µM)
MIC [9, 12]: 16 to 32 µg/mL (≈ 20.1 to 40.3 µM)
MIC [10, 13]: 1 to 2 µg/mL (≈ 1.26 to 2.52 µM)
MIC [11, 14]: 16 to 32 µg/mL (≈ 20.1 to 40.3 µM)

O=C(NCCS(=O)(=O)N1CCN(C(=O)N[C@@H](C(=O)N[C@H]2Cc3ccc(F)c(C(=O)O)c3OB2O)c2cc(F)c(O)c(O)c2Cl)C1=O)Nc1ccncc1 [Example 290, (R)-3-((R)-2-(2-chloro-5-fluoro-3,4-dihydroxyphenyl)-2-(2-oxo-3-((2-(3-(pyridin-4-yl)ureido)ethyl)sulfonyl)imidazolidine-1-carboxamido)acetamido)-7-fluoro-2-hydroxy-3,4-dihydro-2H-benzo[e][1,2]oxaborinine-8-carboxylic acid]
EC50 [1]: < 10 µM
IC50 [2]: < 10 µM
IC50 [3]: < 10 µM
MIC [4]: < 1 µg/mL
MIC [5]: 2 to 4 µg/mL (≈ 2.56 to 5.12 µM)
MIC [6]: 2 to 4 µg/mL (≈ 2.56 to 5.12 µM)
MIC [7]: 2 to 4 µg/mL (≈ 2.56 to 5.12 µM)
MIC [8]: 2 to 4 µg/mL (≈ 2.56 to 5.12 µM)
MIC [9, 12]: 16 to 32 µg/mL (≈ 20.5 to 40.9 µM)
MIC [10, 13]: 1 to 2 µg/mL (≈ 1.28 to 2.56 µM)
MIC [11, 14]: 16 to 32 µg/mL (≈ 20.5 to 40.9 µM)
